{"source": "patent US10086039B2", "about": "“Lamin A, an activator of longevity/anti-aging SIRT1 protein” (THE UNIVERSITY OF HONG KONG, priority 2012, dated 2018)", "key": {"[1]": {"test_system": "p16ink4a", "assay": "p16ink4a level in MEFs by Western blotting", "format": "cell-based, mouse", "details": "Zmpste24−/− MEFs", "protocol": "(§1) Western blotting was performed as described previously (Liu et al., 2005). Relative band intensity was measured by IMAGE J® and normalized to corresponding wild-type or untreated controls as indicated.\nAs resveratrol enhances SIRT1 deacetylase activity by increasing its binding to lamin A, this Example examines the effects of resveratrol treatment on the early senescence in Zmpste24^−/− MEFs. […] As SIRT1 is more highly expressed in stem cells than in somatic differentiated cells and it is critical for maintaining stem cell self-renewal and function (Han et al., 2008; Lee et al., 2011; Saunders et al., 2010), we then tested effects of resveratrol on BMSCs."}, "[2]": {"test_system": "Zmpste24−/− mice", "assay": "BMSC colony-forming efficiency after in vivo treatment of Zmpste24−/− mice", "design": "species or system mouse", "details": "resveratrol 20 μg/ml in drinking water, four months, vs vehicle", "protocol": "(§2) Zmpste24^−/− mice have been described previously (Pendas et al., 2002). Mouse experimentation was performed in accordance with the guidelines of the Committee on the Use of Live Animals in Teaching and Research (CULATR) at the University of Hong Kong. New-born Zmpste24^−/− mice and wild-type controls were fed with resveratrol (20 μg/ml) or N-acetyl Cysteine (1 mg/ml) in drinking water. The survival of resveratrol-treated, NAC-treated, or vehicle-treated Zmpste24^−/− mice was recorded and their body weight was monitored weekly. The trabecular bone organization and bone mineral density were determined by micro-CT. The survival rate was analyzed by Kaplan-Meier method and statistical comparison was performed by Log-rank (Mantel-Cox) Test.\nBone marrow stromal cells were isolated and cultured according to modified protocol (Enumeration and Expansion of Mouse Mesenchymal Progenitor Cells Using MESENCUILT®, Stemcell Technologies, Canada). Briefly, bone marrow cells were flushed out from femurs and tibias with α-MEM (Invitrogen, Carlsbad, Calif., USA) supplemented with 20% FBS, and plated in petri dishes. Non-adherent cells were removed on day 3 and medium was replaced every 3 days. […] Colonies containing more than 50 cells were counted. BMSC colony forming efficiency was calculated as number of colonies formed by […] bone marrow nucleated cells. […]"}, "[3]": {"test_system": "Zmpste24−/− mice", "assay": "Catalase, acetyl p53 and H3K9ac levels in BMSCs isolated from treated Zmpste24−/− mice", "format": "in vivo, mouse", "details": "resveratrol 20 μg/ml in drinking water", "protocol": "as §2, §1\nBriefly, resveratrol was supplemented at a concentration of 20 μg/ml in drinking water. Four months after treatment, BMSCs were collected for examination and comparison between resveratrol-treated and vehicle-treated Zmpste24^−/− mice."}, "[4]": {"test_system": "AMPK", "assay": "AMPK activation at low doses of resveratrol", "format": "cell-based", "details": "low doses (2-10 μM)", "protocol": "It was shown that low doses of resveratrol (≤25 μM) activates AMPK in a SIRT1-dependent manner, while high doses (≥50 μM) activate AMPK independent of SIRT1 (Baur et al., 2006; Price et al., 2012; Sun et al., 2007). In the present invention, low doses (2-10 μM) of resveratrol were used and activation of AMPK was not observed; therefore, it is postulated that the beneficial effects of resveratrol on BMSCs are primarily attributable to the activation of SIRT1."}, "[5]": {"biological_target": "T1, SIRT1 (Homo sapiens, UniProt Q96EB6)", "T1 sequence (Q96EB6 1-747)": "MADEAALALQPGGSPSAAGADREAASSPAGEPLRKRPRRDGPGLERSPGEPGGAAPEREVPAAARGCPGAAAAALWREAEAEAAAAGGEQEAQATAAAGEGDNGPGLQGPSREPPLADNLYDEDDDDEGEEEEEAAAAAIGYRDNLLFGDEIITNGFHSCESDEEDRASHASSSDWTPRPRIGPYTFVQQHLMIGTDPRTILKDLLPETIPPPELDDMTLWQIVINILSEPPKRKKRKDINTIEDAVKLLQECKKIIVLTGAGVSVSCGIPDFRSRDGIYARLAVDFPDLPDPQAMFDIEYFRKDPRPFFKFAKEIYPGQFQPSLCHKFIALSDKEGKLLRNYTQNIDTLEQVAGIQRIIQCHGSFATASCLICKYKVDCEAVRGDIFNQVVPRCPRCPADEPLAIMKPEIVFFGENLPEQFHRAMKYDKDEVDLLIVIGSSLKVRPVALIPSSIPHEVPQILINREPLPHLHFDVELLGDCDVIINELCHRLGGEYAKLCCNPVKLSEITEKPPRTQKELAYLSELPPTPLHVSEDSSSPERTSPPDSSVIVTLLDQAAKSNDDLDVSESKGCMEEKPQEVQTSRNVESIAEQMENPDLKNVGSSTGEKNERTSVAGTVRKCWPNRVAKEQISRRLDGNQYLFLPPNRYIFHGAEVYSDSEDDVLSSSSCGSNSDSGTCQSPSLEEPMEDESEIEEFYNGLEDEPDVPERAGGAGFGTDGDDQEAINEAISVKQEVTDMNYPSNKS", "details": "cited from earlier work"}}, "data": [{"molecule": "Oc1ccc(C=Cc2cc(O)cc(O)c2)cc1", "note": "[resveratrol]", "values": [{"measurement": "elevated levels of p16ink4a", "setting": "[1]", "result": "did not reduce"}, {"measurement": "BMSC colony-forming efficiency", "setting": "[2]", "result": "significantly increased"}, {"measurement": "level of acetyl H3K9 in BMSCs", "setting": "[3]", "result": "decreased"}, {"measurement": "level of acetyl p53 in BMSCs", "setting": "[3]", "result": "decreased"}, {"measurement": "level of catalase in BMSCs", "setting": "[3]", "result": "enhanced"}, {"measurement": "activation of AMPK", "setting": "[4]", "result": "not observed"}, {"measurement": "SIRT1 activation towards full-length native target proteins, including p53 and PGC-1α", "setting": "[5]; Beher 2009, Dai 2010, Pacholec 2010", "result": "do not confer any SIRT1 activation"}, {"measurement": "SIRT1 activity towards fluorophore-conjugated synthetic peptide (Ac-Arg-His-Lys-LysAc-AMC) rather than the unmodified one", "setting": "[5]; Borra et al., 2005, Kaeberlein et al.", "result": "specifically enhances"}]}]}
